# Calls of active or inactive are those of the source. No rule for the calls is given here.
# Molecular target: Acetylcholine receptor subunit alpha (Tetronarce californica) + Acetylcholine receptor subunit beta (Tetronarce californica) + Acetylcholine receptor subunit gamma (Tetronarce californica) + Acetylcholine receptor subunit delta (Tetronarce californica) (UniProt P02710+P02712+P02714+P02718)
# Assay: muscle-type nicotinic receptor radioligand displacement – biochemical, Torpedo californica electric organ membranes, [125I]alpha-bungarotoxin (AID 743370)
# Settings: [125I]alpha-bungarotoxin displacement
# Sequence of Acetylcholine receptor subunit alpha (Tetronarce californica) + Acetylcholine receptor subunit beta (Tetronarce californica) + Acetylcholine receptor subunit gamma (Tetronarce californica) + Acetylcholine receptor subunit delta (Tetronarce californica) (P02710 whole entry, looked up): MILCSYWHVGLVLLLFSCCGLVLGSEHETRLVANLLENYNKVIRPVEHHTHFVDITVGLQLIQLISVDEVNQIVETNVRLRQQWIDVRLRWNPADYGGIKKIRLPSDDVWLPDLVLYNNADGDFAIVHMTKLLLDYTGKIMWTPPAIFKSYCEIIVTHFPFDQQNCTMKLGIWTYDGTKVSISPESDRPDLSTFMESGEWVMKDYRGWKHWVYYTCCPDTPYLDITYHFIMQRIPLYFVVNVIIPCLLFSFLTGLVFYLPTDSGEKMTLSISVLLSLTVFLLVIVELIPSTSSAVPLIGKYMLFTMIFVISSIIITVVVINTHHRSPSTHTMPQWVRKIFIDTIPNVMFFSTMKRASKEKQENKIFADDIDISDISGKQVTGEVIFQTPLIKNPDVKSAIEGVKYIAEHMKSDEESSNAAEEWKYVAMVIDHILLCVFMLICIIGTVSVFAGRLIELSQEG
# Sequence of Acetylcholine receptor subunit alpha (Tetronarce californica) + Acetylcholine receptor subunit beta (Tetronarce californica) + Acetylcholine receptor subunit gamma (Tetronarce californica) + Acetylcholine receptor subunit delta (Tetronarce californica) (P02712 whole entry, looked up): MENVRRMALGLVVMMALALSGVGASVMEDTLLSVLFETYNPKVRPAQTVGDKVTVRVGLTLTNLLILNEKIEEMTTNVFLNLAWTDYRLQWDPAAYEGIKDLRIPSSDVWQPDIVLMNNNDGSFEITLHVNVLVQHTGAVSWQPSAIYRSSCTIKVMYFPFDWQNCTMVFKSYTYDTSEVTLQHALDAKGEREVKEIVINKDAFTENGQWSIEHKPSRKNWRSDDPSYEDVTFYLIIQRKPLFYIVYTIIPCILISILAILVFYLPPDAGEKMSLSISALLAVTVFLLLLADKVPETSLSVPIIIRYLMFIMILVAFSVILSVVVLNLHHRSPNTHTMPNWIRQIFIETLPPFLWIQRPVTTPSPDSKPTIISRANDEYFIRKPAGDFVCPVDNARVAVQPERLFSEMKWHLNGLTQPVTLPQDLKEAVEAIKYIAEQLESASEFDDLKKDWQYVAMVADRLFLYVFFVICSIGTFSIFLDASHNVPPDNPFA
# Sequence of Acetylcholine receptor subunit alpha (Tetronarce californica) + Acetylcholine receptor subunit beta (Tetronarce californica) + Acetylcholine receptor subunit gamma (Tetronarce californica) + Acetylcholine receptor subunit delta (Tetronarce californica) (P02714 whole entry, looked up): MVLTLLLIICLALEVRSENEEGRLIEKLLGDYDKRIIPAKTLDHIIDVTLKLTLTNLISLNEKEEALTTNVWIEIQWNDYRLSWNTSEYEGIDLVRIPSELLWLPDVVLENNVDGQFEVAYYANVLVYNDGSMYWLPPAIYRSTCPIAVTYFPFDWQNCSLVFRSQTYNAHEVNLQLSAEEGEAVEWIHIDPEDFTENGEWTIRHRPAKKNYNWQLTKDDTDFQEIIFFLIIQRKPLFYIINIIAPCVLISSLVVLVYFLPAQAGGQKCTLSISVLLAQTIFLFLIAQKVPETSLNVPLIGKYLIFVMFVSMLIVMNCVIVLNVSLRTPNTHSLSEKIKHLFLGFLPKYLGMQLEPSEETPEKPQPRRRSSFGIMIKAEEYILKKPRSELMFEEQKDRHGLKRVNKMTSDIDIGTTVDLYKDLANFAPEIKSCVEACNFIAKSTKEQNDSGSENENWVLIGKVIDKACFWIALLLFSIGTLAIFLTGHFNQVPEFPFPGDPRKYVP
# Sequence of Acetylcholine receptor subunit alpha (Tetronarce californica) + Acetylcholine receptor subunit beta (Tetronarce californica) + Acetylcholine receptor subunit gamma (Tetronarce californica) + Acetylcholine receptor subunit delta (Tetronarce californica) (P02718 whole entry, looked up): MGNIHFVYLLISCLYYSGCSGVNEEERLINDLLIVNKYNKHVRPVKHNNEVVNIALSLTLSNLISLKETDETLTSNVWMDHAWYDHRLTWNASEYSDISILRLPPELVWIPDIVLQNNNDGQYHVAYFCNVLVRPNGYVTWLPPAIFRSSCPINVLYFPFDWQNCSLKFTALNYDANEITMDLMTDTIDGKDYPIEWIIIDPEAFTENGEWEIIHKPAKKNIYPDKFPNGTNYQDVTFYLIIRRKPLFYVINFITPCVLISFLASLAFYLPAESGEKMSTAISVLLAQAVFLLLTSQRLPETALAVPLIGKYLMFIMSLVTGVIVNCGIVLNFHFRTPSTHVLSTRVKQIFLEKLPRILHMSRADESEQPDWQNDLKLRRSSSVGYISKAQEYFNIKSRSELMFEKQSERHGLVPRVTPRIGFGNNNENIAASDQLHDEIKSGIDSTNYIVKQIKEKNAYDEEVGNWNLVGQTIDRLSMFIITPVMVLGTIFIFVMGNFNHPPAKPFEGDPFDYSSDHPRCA
row,SMILES,Ki
1,NC1=N/C(=C2/CCNC(=O)c3[nH]ccc32)C(=O)N1,inactive
2,COc1cc(CCN)c2c(c1OC)SSSSS2,10 µM
3,COc1cc2c3c(ccnc3c1OC)NC=C2,34 µM
4,C[C@@H](N)[C@H](O)CCCCCCCC(=O)CCCCCCCCCCCCCC[C@@H](O[C@@H]1O[C@H](CO)[C@H](O)[C@H](O)[C@H]1O)[C@@H](C)N,22 µM
5,CC/C=C/[C@@H]1CC[C@]2(C[C@H]3CC[C@H]4[C@@H](C(=O)OC(CC)CCCCCCCCCCCCC[C@@H]5O[C@](O)(CCN)[C@H](O)N(CCCN)C5=O)[C@@]5(CCC[C@H](C)O5)NC(=[N+]34)N2)O1 (stereo partly specified),8 µM
6,COn1c(Br)c2c3c(cccc31)[C@H]1C[C@@H](C)CN(C)[C@@H]1C2,44 µM

# From PubChem BioAssay AID743370
